In patent US10160755B2 (Plexxikon Inc., priority 2015, dated 2018):

Columns and labels:
FLT3-ITD = biological target: T1, FLT3-ITD (Homo sapiens, UniProt P36888); assay: FLT3-ITD biochemical kinase assay (AlphaScreen)
T1 construct: FLT3-ITD; Invitrogen #PV6190
T1 sequence (P36888 1-993): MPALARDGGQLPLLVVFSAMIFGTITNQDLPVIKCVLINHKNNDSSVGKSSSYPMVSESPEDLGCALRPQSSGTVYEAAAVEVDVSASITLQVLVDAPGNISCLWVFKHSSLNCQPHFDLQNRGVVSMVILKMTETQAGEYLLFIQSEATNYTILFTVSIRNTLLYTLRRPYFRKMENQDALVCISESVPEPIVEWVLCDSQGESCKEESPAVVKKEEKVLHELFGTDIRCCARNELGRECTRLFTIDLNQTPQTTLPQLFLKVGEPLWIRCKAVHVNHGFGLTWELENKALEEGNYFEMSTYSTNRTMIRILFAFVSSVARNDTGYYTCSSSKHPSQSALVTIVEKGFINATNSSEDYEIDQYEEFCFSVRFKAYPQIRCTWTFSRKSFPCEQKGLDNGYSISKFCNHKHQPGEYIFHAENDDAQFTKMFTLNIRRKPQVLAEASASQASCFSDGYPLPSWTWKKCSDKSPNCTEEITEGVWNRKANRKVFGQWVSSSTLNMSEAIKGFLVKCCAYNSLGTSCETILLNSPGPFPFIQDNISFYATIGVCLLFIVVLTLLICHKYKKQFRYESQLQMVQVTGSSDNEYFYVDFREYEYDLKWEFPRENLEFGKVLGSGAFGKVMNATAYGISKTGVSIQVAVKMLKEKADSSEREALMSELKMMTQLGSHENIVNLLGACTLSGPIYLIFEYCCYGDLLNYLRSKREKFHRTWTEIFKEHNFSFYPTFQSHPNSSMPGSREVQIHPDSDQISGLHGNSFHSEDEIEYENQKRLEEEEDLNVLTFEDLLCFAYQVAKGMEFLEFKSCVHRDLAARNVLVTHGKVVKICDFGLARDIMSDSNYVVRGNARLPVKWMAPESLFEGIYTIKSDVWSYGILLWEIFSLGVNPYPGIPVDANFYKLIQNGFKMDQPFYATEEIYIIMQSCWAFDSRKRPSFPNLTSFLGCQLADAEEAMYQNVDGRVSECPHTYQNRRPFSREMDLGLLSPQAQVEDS
From the text: (§1) In order to determine the effect of compounds on FLT3 catalytic activity, kinase assays using recombinant enzymes and AlphaScreen® technology have been established. When the kinases are catalytically active, they phosphorylate a biotinylated peptide substrate on tyrosine residues. Using AlphaScreen® technology, the ability of the compounds to affect the catalytic activity of the kinases can be measured quantitatively. The peptide substrate is immobilized by the AlphaScreen® Streptavidin Donor beads and, upon phosphorylation by a tyrosine kinase, can bind to AlphaScreen® Anti-Phosphotyrosine (PY20) Acceptor beads. Upon excitation of these beads with laser light at 680 nm, singlet oxygen is produced. This singlet oxygen is rapidly quenched, unless the AlphaScreen® Anti-Phosphotyrosine (PY20) Acceptor beads are in close proximity, in which case a proximity signal can be measured at 580 nm. In the presence of catalytic activity, there is a very strong proximity signal. Selective kinase inhibitors affect a decrease in this proximity signal through a decrease in tyrosine phosphorylation of the peptide substrate.
(§2) Substrate • Poly (Glu4-Tyr) Peptide, biotin conjugate [Biotin-GG(EEEEY)10EE (SEQ ID NO: 4)] • UBI/Millipore #12-440 • Final concentration=30 nM
(§3) Adenosine Triphosphate (ATP) • Sigma #A-3377 • Final concentration for IC50 determination=10 μM (FLT3-D835Y) or 100 μM (FLT3 or FLT3-ITD) • Detection Reagent • AlphaScreen® Phosphotyrosine (PY20) Assay Kit • Perkin-Elmer #6760601M • Final concentration=10 μg/mL
(§4) Centrifuge 1 minute, shake to mix, and incubate as follows:
(§5) • Mix Streptavidin Donor beads at 6× final concentration in Stop/Detection buffer. • Add 5 μL Streptavidin Donor beads to the reaction plate. Centrifuge 1 minute, shake to mix, and incubate at room temperature for 20 minutes. • Mix Anti-Phosphotyrosine (PY20) Acceptor beads at 6× final concentration in Stop/Detection buffer. • Add 5 μL Anti-Phosphotyrosine (PY20) beads to the reaction plate. • Centrifuge 1 minute, shake to mix, and incubate at room temperature for 60 minutes. • Read plate on Wallac EnVision™ 2103 Multilabel Reader. In Vivo Model System Testing

FLT3-D835Y = biological target: T2, FLT3-D835Y (Homo sapiens, UniProt P36888, D835Y); assay: FLT3-D835Y biochemical kinase assay (AlphaScreen)
T2 construct: purchased Invitrogen PV3967
T2 sequence (P36888 27-993 D835Y): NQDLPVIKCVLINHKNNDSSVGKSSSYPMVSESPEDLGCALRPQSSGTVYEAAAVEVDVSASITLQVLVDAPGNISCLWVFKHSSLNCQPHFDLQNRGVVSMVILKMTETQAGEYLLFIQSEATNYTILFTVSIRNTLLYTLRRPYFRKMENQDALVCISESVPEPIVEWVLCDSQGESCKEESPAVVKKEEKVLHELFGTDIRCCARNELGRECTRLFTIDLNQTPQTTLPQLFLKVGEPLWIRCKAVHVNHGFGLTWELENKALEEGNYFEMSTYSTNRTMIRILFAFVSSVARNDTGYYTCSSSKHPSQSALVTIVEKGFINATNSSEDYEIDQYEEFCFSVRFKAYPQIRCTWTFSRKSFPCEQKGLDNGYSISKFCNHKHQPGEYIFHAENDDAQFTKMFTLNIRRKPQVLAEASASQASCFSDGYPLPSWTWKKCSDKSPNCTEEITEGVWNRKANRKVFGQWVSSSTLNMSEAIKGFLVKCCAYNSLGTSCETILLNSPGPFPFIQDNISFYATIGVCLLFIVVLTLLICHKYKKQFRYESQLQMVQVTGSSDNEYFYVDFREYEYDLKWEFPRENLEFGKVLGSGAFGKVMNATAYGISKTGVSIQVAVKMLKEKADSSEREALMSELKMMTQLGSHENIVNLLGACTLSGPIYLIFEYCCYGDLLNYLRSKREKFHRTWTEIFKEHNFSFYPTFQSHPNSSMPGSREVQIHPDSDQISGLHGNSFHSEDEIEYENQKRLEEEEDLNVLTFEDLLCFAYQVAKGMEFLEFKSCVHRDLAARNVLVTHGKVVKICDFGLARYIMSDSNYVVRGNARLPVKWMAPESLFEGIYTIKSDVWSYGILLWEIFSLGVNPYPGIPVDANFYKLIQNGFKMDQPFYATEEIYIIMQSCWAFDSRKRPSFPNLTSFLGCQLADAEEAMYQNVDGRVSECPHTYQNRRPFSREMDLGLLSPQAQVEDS
From the text: as §1, §2, §3, §4, §5

Row | SMILES | IC50 (FLT3-ITD) [µM] | IC50 (FLT3-D835Y) [µM]
1 | c1cc(-c2cnc3[nH]cc(-c4ccc5ncsc5c4)c3n2)cc(N2CCOCC2)c1 [P-163, 4-[3-[7-(1,3-benzothiazol-6-yl)-5H-pyrrolo[2,3-b]pyrazin-2-yl]phenyl]morpholine] | 0.0001 to 1 | 0.0001 to 1
2 | COc1cc(-c2cnc3[nH]cc(-c4ccc5ncn(C6CCCNC6)c5c4)c3c2)ccn1 (stereo not shown) [P-138, 5-(2-methoxy-4-pyridyl)-3-[3-(3-piperidyl)benzimidazol-5-yl]-1H-pyrrolo[2,3-b]pyridine] | 0.0001 to 1 | 0.0001 to 1
3 | COc1cccc(-c2cnc3[nH]cc(-c4ccc5ncn(C)c5c4)c3n2)c1 [P-145, 2-(3-methoxyphenyl)-7-(3-methylbenzimidazol-5-yl)-5H-pyrrolo[2,3-b]pyrazine] | 0.0001 to 1 | 0.0001 to 1
4 | Fc1ccc(-n2cnc3ccc(-c4c[nH]c5ncc(-c6cccc(OC(F)(F)F)c6)cc45)cc32)cc1 [P-204, 1-(4-fluorophenyl)-6-[5-[3-(trifluoromethoxy)phenyl]-1H-pyrrolo[2,3-b]pyridin-3-yl]benzimidazole] | 0.0001 to 1 | 0.0001 to 1
5 | Cn1cnc2ccc(-c3c[nH]c4ncc(-c5cccc(C#N)c5)nc34)cc21 [P-146, 3-[7-(3-methylbenzimidazol-5-yl)-5H-pyrrolo[2,3-b]pyrazin-2-yl]benzonitrile] | 0.0001 to 1 | 0.0001 to 1
6 | COc1cc(-c2cnc3[nH]cc(-c4ccc5ncn(C6CCCNC6)c5c4)c3c2)cc(OC)n1 (stereo not shown) [P-197, 5-(2,6-dimethoxy-4-pyridyl)-3-[3-(3-piperidyl)benzimidazol-5-yl]-1H-pyrrolo[2,3-b]pyridine] | 0.0001 to 1 | 0.0001 to 1
7 | COc1cnc2[nH]cc(-c3ccc4ncn(Cc5ccc(Cl)cc5)c4c3)c2c1 [P-111, 1-[(4-chlorophenyl)methyl]-6-(5-methoxy-1H-pyrrolo[2,3-b]pyridin-3-yl)benzimidazole] | 0.0001 to 1 | 0.0001 to 1
8 | COc1cnc2[nH]cc(-c3ccc4c(c3)N(C)CCO4)c2c1 [P-107, 6-(5-methoxy-1H-pyrrolo[2,3-b]pyridin-3-yl)-4-methyl-2,3-dihydro-1,4-benzoxazine] | 0.0001 to 1 | 0.0001 to 1
9 | CC(C)(C)n1cnc2ccc(-c3c[nH]c4ncc(-c5cnc(C#N)c(Cl)c5)nc34)cc21 [P-361, 5-[7-(3-tert-butylbenzimidazol-5-yl)-5H-pyrrolo[2,3-b]pyrazin-2-yl]-3-chloro-pyridine-2-carbonitrile] | 0.0001 to 1 | 0.0001 to 1
10 | CC(C)(C)n1cnc2ccc(-c3c[nH]c4ncc(-c5ccc(C6CC6)nc5)nc34)cc21 [P-353, 7-(3-tert-butylbenzimidazol-5-yl)-2-(6-cyclopropyl-3-pyridyl)-5H-pyrrolo[2,3-b]pyrazine] | 0.0001 to 1 | 0.0001 to 1
11 | CN(c1cccc(-c2cnc3[nH]cc(-c4ccc5ncsc5c4)c3n2)c1)S(C)(=O)=O [P-167, N-[3-[7-(1,3-benzothiazol-6-yl)-5H-pyrrolo[2,3-b]pyrazin-2-yl]phenyl]-N-methyl-methanesulfonamide] | 0.0001 to 1 | 0.0001 to 1
12 | COc1cnc2[nH]cc(-c3ccc4c(c3)ncn4C)c2c1 [P-102, 5-methoxy-3-(1-methylbenzimidazol-5-yl)-1H-pyrrolo[2,3-b]pyridine] | 10 to 200 | 1 to 10
13 | CC(C)(C)n1cnc2ccc(-c3c[nH]c4ncc(-c5ccnc(C6CC6)c5)nc34)cc21 [P-351, 7-(3-tert-butylbenzimidazol-5-yl)-2-(2-cyclopropyl-4-pyridyl)-5H-pyrrolo[2,3-b]pyrazine] | 0.0001 to 1 | 0.0001 to 1
14 | Cn1cnc2ccc(-c3c[nH]c4ncc(C#Cc5ccccc5)cc34)cc21 [P-139, 1-methyl-6-[5-(2-phenylethynyl)-1H-pyrrolo[2,3-b]pyridin-3-yl]benzimidazole] | 0.0001 to 1 | 0.0001 to 1
15 | CC(C)(C)n1cnc2ccc(-c3c[nH]c4ncc(NS(=O)(=O)c5cccc(OC(F)(F)F)c5)cc34)cc21 [P-213, N-[3-(3-tert-butylbenzimidazol-5-yl)-1H-pyrrolo[2,3-b]pyridin-5-yl]-3-(trifluoromethoxy)benzenesulfonamide] | 0.0001 to 1 | 1 to 10
16 | COc1cc(-c2cnc3[nH]cc(-c4ccc5ncsc5c4)c3n2)cc(C)n1 [P-173, 6-[2-(2-methoxy-6-methyl-4-pyridyl)-5H-pyrrolo[2,3-b]pyrazin-7-yl]-1,3-benzothiazole] | 0.0001 to 1 | 0.0001 to 1
17 | CCCS(=O)(=O)Nc1cccc(-c2cnc3[nH]cc(-c4ccc5ncsc5c4)c3n2)c1 [P-168, N-[3-[7-(1,3-benzothiazol-6-yl)-5H-pyrrolo[2,3-b]pyrazin-2-yl]phenyl]propane-1-sulfonamide] | 0.0001 to 1 | 0.0001 to 1
18 | COc1cc(-c2cnc3[nH]cc(-c4ccc5ncn(C)c5c4)c3n2)cc(OC)n1 [P-157, 2-(2,6-dimethoxy-4-pyridyl)-7-(3-methylbenzimidazol-5-yl)-5H-pyrrolo[2,3-b]pyrazine] | 0.0001 to 1 | 0.0001 to 1
19 | Cn1cnc2ccc(-c3c[nH]c4ncc(-c5cnn(CC(F)(F)F)c5)nc34)cc21 [P-176, 7-(3-methylbenzimidazol-5-yl)-2-[1-(2,2,2-trifluoroethyl)pyrazol-4-yl]-5H-pyrrolo[2,3-b]pyrazine] | 0.0001 to 1 | 0.0001 to 1
20 | CC(C)(C)n1cnc2ccc(-c3c[nH]c4ncc(-c5cnc(C(F)(F)F)nc5)nc34)cc21 [P-343, 7-(3-tert-butylbenzimidazol-5-yl)-2-[2-(trifluoromethyl)pyrimidin-5-yl]-5H-pyrrolo[2,3-b]pyrazine] | 0.0001 to 1 | 0.0001 to 1
